Source: patent US20230310428A1, “EGFR INHIBITOR AND PREPARATION METHOD AND USE THEREOF” (HONGYUN BIOTECH CO., LTD., priority 2020, published 2023)
pIC50: −log10 of the molar value. Read-outs that look alike come from different tables or passages of the source.

What was measured:
Experiment in all cases: Growth inhibitory activity of compounds on BaF3 cell lines stably transfected with kinase (MTS, 48 h)
Assay type in all cases: cell-based
[1] = biological target: T1, various mutants of kinase EGFR (BaF3 cell lines stably transfected with kinase) (Homo sapiens, UniProt P00533)
T1 construct: other: BaF3 cells stably transfected with EGFR Δ19Del; MTS, 48 h; other: BaF3 cell line stably transfected with EGFR Δ19Del
Summary of the method: (§1)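 Transfected cells received compound (max 10 µM, 8 concentrations) for 48 h; MTS readout at 490 nm yielded IC50.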

[2] = biological target: T2, various mutants of kinase EGFR (BaF3 cell lines stably transfected with kinase) (Homo sapiens, UniProt P00533, C797S/L858R/T790M)
T2 construct: expressed in transfected cells; host or cells: BaF3
Summary of the method: as §1

[3] = biological target: T3, various mutants of kinase EGFR (BaF3 cell lines stably transfected with kinase) (Homo sapiens, UniProt P00533, L858R)
T3 construct: expressed in transfected cells; host or cells: BaF3
T3 sequence (P00533 25-1210 L858R): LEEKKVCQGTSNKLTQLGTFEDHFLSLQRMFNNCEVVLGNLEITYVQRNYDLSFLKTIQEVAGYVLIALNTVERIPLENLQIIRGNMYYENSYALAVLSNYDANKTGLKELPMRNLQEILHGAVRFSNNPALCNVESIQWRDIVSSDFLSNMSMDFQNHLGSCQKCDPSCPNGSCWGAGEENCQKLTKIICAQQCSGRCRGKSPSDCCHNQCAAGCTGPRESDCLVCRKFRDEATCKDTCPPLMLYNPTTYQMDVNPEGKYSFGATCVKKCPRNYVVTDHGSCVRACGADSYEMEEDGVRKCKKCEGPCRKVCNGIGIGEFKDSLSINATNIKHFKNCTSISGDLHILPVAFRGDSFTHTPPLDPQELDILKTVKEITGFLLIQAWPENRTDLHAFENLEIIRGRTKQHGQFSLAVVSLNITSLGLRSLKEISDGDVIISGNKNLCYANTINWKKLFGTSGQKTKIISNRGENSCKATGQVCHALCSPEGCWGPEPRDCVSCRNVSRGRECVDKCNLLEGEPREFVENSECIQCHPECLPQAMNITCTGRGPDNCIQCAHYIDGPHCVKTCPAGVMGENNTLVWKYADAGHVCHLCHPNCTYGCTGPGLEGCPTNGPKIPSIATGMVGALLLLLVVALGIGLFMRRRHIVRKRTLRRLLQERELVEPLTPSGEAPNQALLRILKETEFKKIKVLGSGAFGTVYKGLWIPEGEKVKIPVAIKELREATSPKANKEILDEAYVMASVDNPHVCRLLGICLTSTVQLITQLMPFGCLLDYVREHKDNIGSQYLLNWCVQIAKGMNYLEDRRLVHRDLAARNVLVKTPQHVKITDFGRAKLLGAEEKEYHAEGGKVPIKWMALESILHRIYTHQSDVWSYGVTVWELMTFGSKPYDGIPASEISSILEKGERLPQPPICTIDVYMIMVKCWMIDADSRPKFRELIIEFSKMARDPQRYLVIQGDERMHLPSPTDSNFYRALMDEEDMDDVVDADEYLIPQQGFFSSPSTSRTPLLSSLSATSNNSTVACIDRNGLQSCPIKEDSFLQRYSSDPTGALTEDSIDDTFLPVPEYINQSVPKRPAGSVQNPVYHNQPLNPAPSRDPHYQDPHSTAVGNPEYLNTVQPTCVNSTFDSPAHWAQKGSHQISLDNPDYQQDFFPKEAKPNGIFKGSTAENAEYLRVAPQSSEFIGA
Summary of the method: as §1

[4] = biological target: T4, various mutants of kinase EGFR (BaF3 cell lines stably transfected with kinase) (Homo sapiens, UniProt P00533, L858R/T790M)
T4 construct: expressed in transfected cells; host or cells: BaF3
T4 sequence (P00533 25-1210 T790M/L858R): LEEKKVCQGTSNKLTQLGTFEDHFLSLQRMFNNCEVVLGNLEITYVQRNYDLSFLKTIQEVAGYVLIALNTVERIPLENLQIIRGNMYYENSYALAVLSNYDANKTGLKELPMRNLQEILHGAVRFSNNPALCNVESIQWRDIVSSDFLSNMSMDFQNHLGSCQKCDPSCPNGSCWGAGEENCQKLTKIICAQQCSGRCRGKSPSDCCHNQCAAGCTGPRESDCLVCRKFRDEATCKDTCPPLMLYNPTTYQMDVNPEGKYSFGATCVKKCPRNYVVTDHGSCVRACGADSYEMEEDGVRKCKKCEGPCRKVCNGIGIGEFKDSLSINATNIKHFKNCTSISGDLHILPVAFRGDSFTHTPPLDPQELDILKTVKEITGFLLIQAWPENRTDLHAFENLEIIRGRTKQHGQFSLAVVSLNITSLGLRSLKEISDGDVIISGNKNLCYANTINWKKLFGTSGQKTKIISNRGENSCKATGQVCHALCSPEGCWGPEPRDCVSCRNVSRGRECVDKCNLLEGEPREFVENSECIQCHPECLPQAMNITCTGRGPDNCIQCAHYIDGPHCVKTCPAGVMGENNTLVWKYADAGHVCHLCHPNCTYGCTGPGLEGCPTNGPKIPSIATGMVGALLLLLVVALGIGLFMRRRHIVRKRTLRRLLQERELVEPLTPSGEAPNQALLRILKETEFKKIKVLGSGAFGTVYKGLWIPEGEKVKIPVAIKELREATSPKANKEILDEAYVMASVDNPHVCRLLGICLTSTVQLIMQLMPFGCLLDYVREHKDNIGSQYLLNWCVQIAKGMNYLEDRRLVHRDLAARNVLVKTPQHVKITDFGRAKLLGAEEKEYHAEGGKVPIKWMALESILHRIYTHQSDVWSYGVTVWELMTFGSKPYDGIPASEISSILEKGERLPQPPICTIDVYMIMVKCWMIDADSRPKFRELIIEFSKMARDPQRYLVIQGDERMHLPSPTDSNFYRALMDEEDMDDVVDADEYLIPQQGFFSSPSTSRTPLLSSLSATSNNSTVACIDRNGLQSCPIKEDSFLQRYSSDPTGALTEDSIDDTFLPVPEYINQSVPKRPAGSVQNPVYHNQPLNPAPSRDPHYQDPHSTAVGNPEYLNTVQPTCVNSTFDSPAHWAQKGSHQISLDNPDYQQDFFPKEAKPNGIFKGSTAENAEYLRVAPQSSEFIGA
Summary of the method: as §1

[5] = biological target: T5, various mutants of kinase EGFR (BaF3 cell lines stably transfected with kinase) (Homo sapiens, UniProt P00533, T790M/C797S, form not given)
T5 construct: other: BaF3 cells stably transfected with EGFR Δ19Del/T790M/C797S; MTS, 48; other: BaF3 cell line stably transfected with EGFR Δ19Del/T790M/C7
T5 sequence (P00533 with tags, fused parts or gaps DEL746-750/T790M/C797S, form open): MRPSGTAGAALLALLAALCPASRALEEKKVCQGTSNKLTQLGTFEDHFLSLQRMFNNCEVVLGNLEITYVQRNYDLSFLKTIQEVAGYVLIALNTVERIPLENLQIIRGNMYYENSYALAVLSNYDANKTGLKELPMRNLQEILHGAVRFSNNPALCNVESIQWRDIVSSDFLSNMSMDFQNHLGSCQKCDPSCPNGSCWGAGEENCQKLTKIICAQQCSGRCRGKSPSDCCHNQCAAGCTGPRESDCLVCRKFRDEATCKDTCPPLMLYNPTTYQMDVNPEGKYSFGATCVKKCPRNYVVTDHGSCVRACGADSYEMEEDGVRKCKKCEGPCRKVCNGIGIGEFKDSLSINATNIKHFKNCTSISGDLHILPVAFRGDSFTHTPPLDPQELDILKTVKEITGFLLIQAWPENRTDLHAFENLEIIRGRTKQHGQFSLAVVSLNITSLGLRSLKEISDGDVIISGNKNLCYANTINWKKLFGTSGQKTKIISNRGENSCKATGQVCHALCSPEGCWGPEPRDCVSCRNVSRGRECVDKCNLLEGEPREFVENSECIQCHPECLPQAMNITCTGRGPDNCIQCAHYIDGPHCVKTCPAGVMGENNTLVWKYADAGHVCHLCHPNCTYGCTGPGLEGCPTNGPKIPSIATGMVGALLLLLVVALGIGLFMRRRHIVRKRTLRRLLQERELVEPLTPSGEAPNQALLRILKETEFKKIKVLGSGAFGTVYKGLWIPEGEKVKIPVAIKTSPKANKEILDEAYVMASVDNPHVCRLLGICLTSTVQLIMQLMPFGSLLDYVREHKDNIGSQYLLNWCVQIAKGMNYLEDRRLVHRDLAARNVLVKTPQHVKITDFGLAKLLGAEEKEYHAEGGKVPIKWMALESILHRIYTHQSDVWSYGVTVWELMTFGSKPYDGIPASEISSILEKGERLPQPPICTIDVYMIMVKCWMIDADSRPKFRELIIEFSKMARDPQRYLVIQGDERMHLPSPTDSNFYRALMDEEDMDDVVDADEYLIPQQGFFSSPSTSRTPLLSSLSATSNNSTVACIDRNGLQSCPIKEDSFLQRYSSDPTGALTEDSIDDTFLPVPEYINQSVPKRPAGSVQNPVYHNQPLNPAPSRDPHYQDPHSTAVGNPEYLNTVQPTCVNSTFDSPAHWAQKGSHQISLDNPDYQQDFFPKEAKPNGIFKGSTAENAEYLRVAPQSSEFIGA
Summary of the method: as §1

[6] = biological target: T6, various mutants of kinase EGFR (BaF3 cell lines stably transfected with kinase) (Homo sapiens, UniProt P00533, T790M, form not given)
T6 construct: other: BaF3 cells stably transfected with EGFR Δ19Del/T790M; MTS, 48 h; other: BaF3 cell line stably transfected with EGFR Δ19Del/T790M; MTS, 48
T6 sequence (P00533 with tags, fused parts or gaps DEL746-750/T790M, form open): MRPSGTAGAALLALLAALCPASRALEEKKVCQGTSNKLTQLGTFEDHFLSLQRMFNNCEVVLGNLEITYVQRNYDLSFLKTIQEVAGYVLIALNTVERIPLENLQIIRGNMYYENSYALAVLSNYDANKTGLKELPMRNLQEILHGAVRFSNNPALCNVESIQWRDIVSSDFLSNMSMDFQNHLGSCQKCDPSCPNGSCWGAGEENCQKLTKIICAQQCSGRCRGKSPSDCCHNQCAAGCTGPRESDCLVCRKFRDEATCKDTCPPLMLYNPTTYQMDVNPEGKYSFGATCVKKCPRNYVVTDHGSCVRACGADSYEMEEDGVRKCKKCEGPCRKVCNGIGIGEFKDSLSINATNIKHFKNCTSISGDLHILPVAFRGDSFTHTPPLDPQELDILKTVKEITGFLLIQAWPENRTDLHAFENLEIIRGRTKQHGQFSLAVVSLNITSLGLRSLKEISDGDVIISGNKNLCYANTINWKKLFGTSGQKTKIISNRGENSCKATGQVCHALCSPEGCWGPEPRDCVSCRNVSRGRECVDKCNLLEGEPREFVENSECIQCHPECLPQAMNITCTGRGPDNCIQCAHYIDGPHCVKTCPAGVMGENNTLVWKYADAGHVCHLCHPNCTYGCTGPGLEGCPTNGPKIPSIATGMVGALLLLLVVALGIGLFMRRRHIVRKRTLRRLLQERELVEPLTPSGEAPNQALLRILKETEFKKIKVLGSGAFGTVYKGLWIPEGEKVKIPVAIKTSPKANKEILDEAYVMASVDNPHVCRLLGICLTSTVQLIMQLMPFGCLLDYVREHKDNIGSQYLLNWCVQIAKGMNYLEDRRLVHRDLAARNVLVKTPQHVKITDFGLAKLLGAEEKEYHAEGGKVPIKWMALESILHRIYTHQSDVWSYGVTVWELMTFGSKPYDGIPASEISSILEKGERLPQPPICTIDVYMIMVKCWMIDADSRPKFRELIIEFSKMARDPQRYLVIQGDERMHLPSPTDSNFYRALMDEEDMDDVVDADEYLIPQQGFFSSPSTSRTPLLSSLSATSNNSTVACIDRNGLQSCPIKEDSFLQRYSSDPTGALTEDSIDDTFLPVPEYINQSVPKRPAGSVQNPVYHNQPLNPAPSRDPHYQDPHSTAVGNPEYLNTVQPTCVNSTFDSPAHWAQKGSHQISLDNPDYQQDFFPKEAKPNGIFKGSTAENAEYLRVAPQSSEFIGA
Summary of the method: as §1

[7] = BaF3 cell line stably transfected with EGFR Δ19Del, read-out: Δ19Del growth inhibitory activity IC50
[8] = BaF3 cell line stably transfected with EGFR L858R/T790M/C797S, read-out: L858R/T790M/ C797S growth inhibitory activity IC50
[9] = BaF3 cell line stably transfected with EGFR L858R, read-out: L858R growth inhibitory activity IC50
[10] = BaF3 cell line stably transfected with EGFR L858R/T790M, read-out: L858R/ T790M growth inhibitory activity IC50
[11] = BaF3 cell line stably transfected with EGFR Δ19Del/T790M/C797S, read-out: Δ19Del/T790M/ C797S growth inhibitory activity IC50
[12] = BaF3 cell line stably transfected with EGFR Δ19Del/T790M, read-out: Δ19Del/ T790M growth inhibitory activity IC50
[13] = BaF3 cells stably transfected with EGFR Δ19Del, read-out: IC50, growth inhibition, Δ19Del
[14] = BaF3 cells stably transfected with EGFR L858R/T790M/C797S, read-out: IC50, growth inhibition, L858R/T790M/C797S
[15] = BaF3 cells stably transfected with EGFR L858R, read-out: IC50, growth inhibition, L858R
[16] = BaF3 cells stably transfected with EGFR L858R/T790M, read-out: IC50, growth inhibition, L858R/T790M
[17] = BaF3 cells stably transfected with EGFR Δ19Del/T790M/C797S, read-out: IC50, growth inhibition, Δ19Del/T790M/C797S
[18] = BaF3 cells stably transfected with EGFR Δ19Del/T790M, read-out: IC50, growth inhibition, Δ19Del/T790M

pIC50 [1, 7]	pIC50 [2, 8]	pIC50 [3, 9]	pIC50 [4, 10]	pIC50 [5, 11]	pIC50 [6, 12]	pIC50 [1, 13]	pIC50 [2, 14]	pIC50 [3, 15]	pIC50 [4, 16]	pIC50 [5, 17]	pIC50 [6, 18]	SMILES
6.30 to 7.30	6.30 to 7.30	6.30 to 7.30	6.30 to 7.30	6.30 to 7.30	6.30 to 7.30							COc1cc(N2CCC(N3CCN(C)CC3)CC2)c(C(C)C)cc1Nc1ncc(C#N)c(Nc2ccc3nccnc3c2N(C)S(C)(=O)=O)n1 [Compound I-345]
						≥ 7.30	≥ 7.30	≥ 7.30	≥ 7.30	≥ 7.30	≥ 7.30	CCc1cc(Nc2ncc(Br)c(Nc3ccc4nccnc4c3N(C3CC3)S(C)(=O)=O)n2)c(OC)cc1N1CCC(N(C)C)CC1 [Compound I-157]
						6.30 to 7.30	6.30 to 7.30	6.30 to 7.30	6.30 to 7.30	≥ 7.30	6.30 to 7.30	CCN(c1c(Nc2nc(Nc3ccc(N4CCC(N5CCN(C)CC5)CC4)nc3OC)ncc2Cl)ccc2nccnc12)S(C)(=O)=O [Compound I-225]
						6.30 to 7.30	6.30 to 7.30	6.30 to 7.30	6.30 to 7.30	6.30 to 7.30	≥ 7.30	COc1cc(N2CCC(N3CCN(C)CC3)CC2)c(CC2CC2)cc1Nc1ncc(Cl)c(Nc2ccc3nccnc3c2N(C)S(=O)(=O)C(C)C)n1 [Compound I-254]
						≥ 7.30	6.30 to 7.30	6.30 to 7.30	6.30 to 7.30	6.30 to 7.30	6.30 to 7.30	COc1cc(N2CCC(N(C)C)C2)c(C)cc1Nc1ncc(F)c(Nc2ccc3nccnc3c2N(C)S(C)(=O)=O)n1 (stereo not drawn) [Compound I-187]
						≥ 7.30	≥ 7.30	≥ 7.30	≥ 7.30	≥ 7.30	≥ 7.30	C=Cc1cc(Nc2ncc(Cl)c(Nc3ccc4nccnc4c3N(C)S(C)(=O)=O)n2)c(OC(F)(F)F)cc1N1CCC(N2CCN(C)CC2)CC1 [Compound I-23]
						≥ 7.30	≥ 7.30	≥ 7.30	≥ 7.30	≥ 7.30	≥ 7.30	CCc1cc(Nc2ncc(C3CC3)c(Nc3ccc4nccnc4c3N(C)S(C)(=O)=O)n2)c(OC)cc1N1CCC(N2CCN(C)CC2)CC1 [Compound I-269]
5.60 to 6.30	5.60 to 6.30	6.30 to 7.30	5.60 to 6.30	6.30 to 7.30	5.60 to 6.30							COc1ccc(N2CCC(O)CC2)cc1Nc1ncc(F)c(Nc2ccc3nccnc3c2N(C)S(=O)(=O)C2CC2)n1 [Compound I-373]
5.60 to 6.30	5.60 to 6.30	5.60 to 6.30	6.30 to 7.30	5.60 to 6.30	5.60 to 6.30							CCc1cc(Nc2ncc(Br)c(Nc3ccc4nccnc4c3NS(C)(=O)=O)n2)c(OC)cc1C(=O)N1CCC(N2CCN(C)CC2)CC1 [Compound I-361]
						6.30 to 7.30	≥ 7.30	≥ 7.30	≥ 7.30	≥ 7.30	≥ 7.30	COc1cc(N2CCC(N3CCN(C)CC3)CC2)c(CC2CC2)cc1Nc1ncc(Br)c(Nc2ccc3nccnc3c2N(C)S(C)(=O)=O)n1 [Compound I-10]
						≥ 7.30	≥ 7.30	≥ 7.30	≥ 7.30	≥ 7.30	≥ 7.30	CCc1cc(Nc2ncc(OC)c(Nc3ccc4nccnc4c3N(C)S(C)(=O)=O)n2)c(OC(F)(F)F)cc1N1CCC(N2CCN(C)CC2)CC1 [Compound I-281]
						≥ 7.30	≥ 7.30	≥ 7.30	≥ 7.30	≥ 7.30	≥ 7.30	CCc1cc(Nc2ncc(Br)c(Nc3ccc4nccnc4c3N(C)S(=O)(=O)C3CC3)n2)c(OC)cc1N1CCC(N2CCN(C)CC2)CC1 [Compound I-105]
						6.30 to 7.30	6.30 to 7.30	6.30 to 7.30	≥ 7.30	6.30 to 7.30	≥ 7.30	CCc1cc(Nc2ncc(C3CC3)c(Nc3ccc4nccnc4c3N(C)S(C)(=O)=O)n2)ccc1N1CCC(N2CCN(C)CC2)CC1 [Compound I-293]
6.30 to 7.30	6.30 to 7.30	6.30 to 7.30	5.60 to 6.30	6.30 to 7.30	6.30 to 7.30							CCc1cc(Nc2nc(Nc3ccc4nccnc4c3N(C)S(C)(=O)=O)c3[nH]ccc3n2)c(OC)nc1N1CCC(N2CCN(C)CC2)CC1 [II-1-21]
						≥ 7.30	≥ 7.30	≥ 7.30	≥ 7.30	≥ 7.30	≥ 7.30	COc1cc(N2CCC(N(C)C)CC2)c(C)cc1Nc1ncc(C(F)(F)F)c(Nc2ccc3nccnc3c2N(C)S(C)(=O)=O)n1 [Compound I-205]
						6.30 to 7.30	6.30 to 7.30	6.30 to 7.30	6.30 to 7.30	6.30 to 7.30	6.30 to 7.30	COc1ccc(NC(=O)CN(C)C)cc1Nc1ncc(Br)c(Nc2ccc3nccnc3c2N(C)S(C)(=O)=O)n1 [Compound I-85]
						6.30 to 7.30	6.30 to 7.30	6.30 to 7.30	6.30 to 7.30	≥ 7.30	6.30 to 7.30	COc1nc(N2CCC(N3CCN(C)CC3)CC2)ccc1Nc1ncc(Br)c(Nc2ccc3nccnc3c2N(C)S(C)(=O)=O)n1 [Compound I-4]
						≥ 7.30	≥ 7.30	≥ 7.30	≥ 7.30	≥ 7.30	6.30 to 7.30	CCN(c1c(Nc2nc(Nc3cc(C)c(N4CCN(C)CC4)cc3OC)ncc2Cl)ccc2nccnc12)S(C)(=O)=O [Compound I-231]
≥ 7.30	≥ 7.30	≥ 7.30	≥ 7.30	≥ 7.30	≥ 7.30							COc1cc(N2CCC(N3CCN(C)CC3)CC2)c(C2CC2)cc1Nc1ncc(Br)c(Nc2ccc3nccnc3c2NS(C)(=O)=O)n1 [Compound I-407]
						6.30 to 7.30	6.30 to 7.30	6.30 to 7.30	6.30 to 7.30	≥ 7.30	≥ 7.30	CCc1cc(Nc2ncc(Cl)c(Nc3ccc4nccnc4c3N(C)S(=O)(=O)C(C)C)n2)c(OC)cc1N1CCC(N(C)C)C1 (stereo not drawn) [Compound I-143]
						6.30 to 7.30	6.30 to 7.30	6.30 to 7.30	6.30 to 7.30	≥ 7.30	6.30 to 7.30	CCc1cc(Nc2ncc([N+](=O)[O-])c(Nc3ccc4nccnc4c3N(C)S(C)(=O)=O)n2)c(OC)cc1N1CCC(N(C)C)C1 (stereo not drawn) [Compound I-196]
						6.30 to 7.30	≥ 7.30	≥ 7.30	≥ 7.30	≥ 7.30	≥ 7.30	COc1cc(N2CCC(N(C)C)C2)c(C)cc1Nc1ncc(C(F)(F)F)c(Nc2ccc3nccnc3c2N(C)S(C)(=O)=O)n1 (stereo not drawn) [Compound I-209]
6.30 to 7.30	6.30 to 7.30	6.30 to 7.30	6.30 to 7.30	6.30 to 7.30	≥ 7.30							CCc1cnc(Nc2ccc(N3CCC(N4CCN(C)CC4)CC3)c(F)c2F)nc1Nc1ccc2nccnc2c1N(C)S(C)(=O)=O [Compound I-348]
						≥ 7.30	≥ 7.30	≥ 7.30	≥ 7.30	≥ 7.30	≥ 7.30	CCc1cc(Nc2ncc(Br)c(Nc3ccc4nccnc4c3N(CC)S(C)(=O)=O)n2)c(OC)cc1N1CCC(N2CCN(C)CC2)CC1 [Compound I-95]
						≥ 7.30	≥ 7.30	≥ 7.30	≥ 7.30	≥ 7.30	≥ 7.30	C=Cc1cc(Nc2ncc(Br)c(Nc3ccc4nccnc4c3N(C)S(C)(=O)=O)n2)c(OC(F)(F)F)cc1N1CCC(N2CCN(C)CC2)CC1 [Compound I-9]
≥ 7.30	≥ 7.30	≥ 7.30	≥ 7.30	≥ 7.30	≥ 7.30							CCc1cc(Nc2ncc(CC)c(Nc3ccc4nccnc4c3N(C)S(C)(=O)=O)n2)c(OC)cc1N1CCC(N(C)C)CC1 [Compound I-323]
